From patent publication US9932331B2, “Phenyl tetrahydroisoquinoline compound substituted with heteroaryl” (TAISHO PHARMACEUTICAL CO., LTD, priority 2014, dated 2018)
Where a name gives a salt, the structure may show the parent alone.

Biological target: T1, human NHE3 (Homo sapiens, UniProt P48764)
T1 sequence (P48764 26-834): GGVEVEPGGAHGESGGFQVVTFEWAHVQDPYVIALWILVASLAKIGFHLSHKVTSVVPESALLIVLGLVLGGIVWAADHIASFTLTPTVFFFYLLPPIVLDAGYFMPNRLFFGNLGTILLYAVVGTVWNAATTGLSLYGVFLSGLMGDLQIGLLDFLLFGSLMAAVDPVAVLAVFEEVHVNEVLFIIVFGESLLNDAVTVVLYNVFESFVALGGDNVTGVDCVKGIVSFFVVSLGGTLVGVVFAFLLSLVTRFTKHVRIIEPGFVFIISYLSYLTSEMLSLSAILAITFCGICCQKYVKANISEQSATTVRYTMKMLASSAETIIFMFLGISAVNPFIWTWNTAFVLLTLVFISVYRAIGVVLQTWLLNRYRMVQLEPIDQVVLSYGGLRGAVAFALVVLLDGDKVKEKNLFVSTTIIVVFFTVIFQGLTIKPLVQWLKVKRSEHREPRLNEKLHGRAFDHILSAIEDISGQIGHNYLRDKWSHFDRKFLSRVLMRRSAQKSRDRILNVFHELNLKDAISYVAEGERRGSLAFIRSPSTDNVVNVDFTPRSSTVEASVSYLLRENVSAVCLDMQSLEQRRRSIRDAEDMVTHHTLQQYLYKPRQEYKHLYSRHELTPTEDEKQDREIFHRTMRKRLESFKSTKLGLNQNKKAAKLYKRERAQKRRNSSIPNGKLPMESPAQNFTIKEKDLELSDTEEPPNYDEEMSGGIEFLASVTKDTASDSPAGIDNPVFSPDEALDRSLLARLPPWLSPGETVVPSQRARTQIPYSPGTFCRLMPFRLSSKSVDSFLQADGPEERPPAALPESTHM
Assay: NHE3 inhibition test (recovery of intracellular pH in cell line stably expressing human NHE3)
Type: cell-based
Conditions: OK cells deficient in endogenous NHE stably expressing human NHE3; BCECF fluorescence, initial rate of pH recovery; read-out: human NHE3 inhibitory activity IC50
Outline: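 Opossum kidney cells lacking endogenous NHE, stably expressing human NHE3, loaded with BCECF-AM and acid-loaded by NH4Cl washout. Compound in Na-free buffer, then Na-containing buffer (pH 7.4) added; initial pH-recovery rate by BCECF fluorescence, IC50 versus no-compound recovery.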

IC50	Compound
3.3 nM	CN1Cc2c(Cl)cc(Cl)cc2[C@H](c2cccc(-c3cn(CCOCCOCCOCCNC(=O)NCCNC(=O)NCCOCCOCCOCCn4cc(-c5cccc([C@@H]6CN(C)Cc7c(Cl)cc(Cl)cc76)c5)nn4)nn3)c2)C1 [Example 7-34, 1,1′-Ethane-1,2-diylbis {3-[2-(2-{2-[2-(4-{3-[(4S)-6,8-dichloro-2-methyl-1,2,3,4-tetrahydroisoquinolin-4-yl]phenyl}-1H-1,2,3-triazol-1-yl)ethoxy]ethoxy}ethoxy)ethyl]urea}hydrochloride]
4.4 nM	CN1Cc2c(Cl)cc(Cl)cc2[C@H](c2cccc(-c3cn(CCOCCOCCOCCNC(=O)NCCCNC(=O)NCCOCCOCCOCCn4cc(-c5cccc([C@@H]6CN(C)Cc7c(Cl)cc(Cl)cc76)c5)nn4)nn3)c2)C1 [Example 7-35, 1,1′-Propane-1,3-diylbis {3-[2-(2-{2-[2-(4-{3-[(4S)-6,8-dichloro-2-methyl-1,2,3,4-tetrahydroisoquinolin-4-yl]phenyl}-1H-1,2,3-triazol-1-yl)ethoxy]ethoxy}ethoxy)ethyl]urea}hydrochloride]
21.4 nM	CN1Cc2c(Cl)cc(Cl)cc2[C@H](c2cccc(-c3cn(CCOCCOCCOCCNC(=O)NCCOCCOCCOCCn4cc(-c5cccc([C@@H]6CN(C)Cc7c(Cl)cc(Cl)cc76)c5)nn4)nn3)c2)C1 [Example 7-36, 1,3-Bis[2-(2-{2-[2-(4-{3-[(4S)-6,8-dichloro-2-methyl-1,2,3,4-tetrahydroisoquinolin-4-yl]phenyl}-1H-1,2,3-triazol-1-yl)ethoxy]ethoxy}ethoxy)ethyl]urea hydrochloride]
6.6 nM	CN1Cc2c(Cl)cc(Cl)cc2[C@H](c2cccc(-c3cn(CCOCCOCCOCCNC(=O)NCCOCCNC(=O)NCCOCCOCCOCCn4cc(-c5cccc([C@@H]6CN(C)Cc7c(Cl)cc(Cl)cc76)c5)nn4)nn3)c2)C1 [Example 7-37, 1,1′-(Oxydiethane-2,1-diyl)bis{3-[2-(2-{2-[2-(4-{3-[(4S)-6,8-dichloro-2-methyl-1,2,3,4-tetrahydroisoquinolin-4-yl]phenyl}-1H-1,2,3-triazol-1-yl)ethoxy]ethoxy}ethoxy)ethyl]urea}hydrochloride]
3.8 nM	CN1Cc2c(Cl)cc(Cl)cc2[C@H](c2cccc(-c3cnc(NCCOCCOCCOCCNC(=O)NCCCCNC(=O)NCCOCCOCCOCCNc4ncc(-c5cccc([C@@H]6CN(C)Cc7c(Cl)cc(Cl)cc76)c5)cn4)nc3)c2)C1 [Example 7-38, 1,1′-Butane-1,4-diylbis(3-{2-[2-(2-{2-[(5-{3-[(4S)-6,8-dichloro-2-methyl-1,2,3,4-tetrahydroisoquinolin-4-yl]phenyl}pyrimidin-2-yl)amino]ethoxy}ethoxy)ethoxy]ethyl}urea) hydrochloride]
5520 nM	CN1Cc2c(Cl)cc(Cl)cc2C(c2cccc(-c3ccnc(NCCOCCOCCNC(=O)Nc4ccc(NC(=O)NCCOCCOCCNc5cc(-c6cccc(C7CN(C)Cc8c(Cl)cc(Cl)cc87)c6)ccn5)cc4)c3)c2)C1 (stereo not drawn) [Example 7-41, 1,1′-Benzene-1,4-diylbis[3-(2-{2-[2-({4-[3-(6,8-dichloro-2-methyl-1,2,3,4-tetrahydroisoquinolin-4-yl)phenyl]pyridin-2-yl}amino)ethoxy]ethoxy}ethyl)urea]trifluoroacetate]
14.9 nM	CN1Cc2c(Cl)cc(Cl)cc2[C@H](c2cccc(-c3ccc(NCCOCCOCCNC(=O)CCC(=O)NCCOCCOCCNc4ccc(-c5cccc([C@@H]6CN(C)Cc7c(Cl)cc(Cl)cc76)c5)cn4)nc3)c2)C1 [Example 8-1, N,N′-Bis[2-(2-{2-[(5-{3-[(4S)-6,8-dichloro-2-methyl-1,2,3,4-tetrahydroisoquinolin-4-yl]phenyl}pyridin-2-yl)amino]ethoxy}ethoxy)ethyl]butanediamide hydrochloride]
10.7 nM	CN1Cc2c(Cl)cc(Cl)cc2[C@H](c2cccc(-c3ccc(NCCOCCOCCNC(=O)[C@H](O)[C@@H](O)C(=O)NCCOCCOCCNc4ccc(-c5cccc([C@@H]6CN(C)Cc7c(Cl)cc(Cl)cc76)c5)cn4)nc3)c2)C1 [Example 8-2, (2R,3R)-N,N′-Bis[2-(2-{2-[(5-{3-[(4S)-6,8-dichloro-2-methyl-1,2,3,4-tetrahydroisoquinolin-4-yl]phenyl}pyridin-2-yl)amino]ethoxy}ethoxy)ethyl]-2,3-dihydroxybutanediamide hydrochloride]
13.2 nM	CN1Cc2c(Cl)cc(Cl)cc2[C@H](c2cccc(-c3ccc(NCCOCCOCCNC(=O)CCCCC(=O)NCCOCCOCCNc4ccc(-c5cccc([C@@H]6CN(C)Cc7c(Cl)cc(Cl)cc76)c5)cn4)nc3)c2)C1 [Example 8-3, N,N′-Bis[2-(2-{2-[(5-{3-[(4S)-6,8-dichloro-2-methyl-1,2,3,4-tetrahydroisoquinolin-4-yl]phenyl}pyridin-2-yl)amino]ethoxy}ethoxy)ethyl]hexanediamide hydrochloride]
115 nM	CN1Cc2c(Cl)cc(Cl)cc2[C@H](c2cccc(-c3ccc(NCCOCCOCCNC(=O)c4ccccc4C(=O)NCCOCCOCCNc4ccc(-c5cccc([C@@H]6CN(C)Cc7c(Cl)cc(Cl)cc76)c5)cn4)nc3)c2)C1 [Example 8-4, N,N′-Bis[2-(2-{2-[(5-{3-[(4S)-6,8-dichloro-2-methyl-1,2,3,4-tetrahydroisoquinolin-4-yl]phenyl}pyridin-2-yl)amino]ethoxy}ethoxy)ethyl]benzene-1,2-dicarboxamide hydrochloride]
2.8 nM	CN1Cc2c(Cl)cc(Cl)cc2[C@H](c2cccc(-c3cn(CCOCCOCCOCCNC(=O)[C@H](O)[C@@H](O)C(=O)NCCOCCOCCOCCn4cc(-c5cccc([C@@H]6CN(C)Cc7c(Cl)cc(Cl)cc76)c5)nn4)nn3)c2)C1 [Example 8-5, (2R,3R)-N,N′-Bis[2-(2-{2-[2-(4-{3-[(4S)-6,8-dichloro-2-methyl-1,2,3,4-tetrahydroisoquinolin-4-yl]phenyl}-1H-1,2,3-triazol-1-yl)ethoxy]ethoxy}ethoxy)ethyl]-2,3-dihydroxybutanediamide hydrochloride]
41.7 nM	CN1Cc2c(Cl)cc(Cl)cc2[C@H](c2cccc(-c3ccc(NCCOCCOCCNC(=O)COCC(=O)NCCOCCOCCNc4ccc(-c5cccc([C@@H]6CN(C)Cc7c(Cl)cc(Cl)cc76)c5)cn4)nc3)c2)C1 [Example 8-7, 1-[(5-{3-[(4S)-6,8-Dichloro-2-methyl-1,2,3,4-tetrahydroisoquinolin-4-yl]phenyl}pyridin-2-yl)amino]-N-[2-(2-{2-[(5-{3-[(4S)-6,8-dichloro-2-methyl-1,2,3,4-tetrahydroisoquinolin-4-yl]phenyl}pyridin-2-yl)amino]ethoxy}ethoxy)ethyl]-10-oxo-3,6,12-trioxa-9-azatetradecan-14-amide hydrochloride]
3.6 nM	CN1Cc2c(Cl)cc(Cl)cc2[C@H](c2cccc(-c3cn(CCOCCOCCOCCNC(=O)[C@@H](O)[C@H](O)C(=O)NCCOCCOCCOCCn4cc(-c5cccc([C@@H]6CN(C)Cc7c(Cl)cc(Cl)cc76)c5)nn4)nn3)c2)C1 [Example 8-9, (2S,3S)-N,N′-Bis[2-(2-{2-[2-(4-{3-[(4S)-6,8-dichloro-2-methyl-1,2,3,4-tetrahydroisoquinolin-4-yl]phenyl}-1H-1,2,3-triazol-1-yl)ethoxy]ethoxy}ethoxy)ethyl]-2,3-dihydroxybutanediamide hydrochloride]
3.2 nM	CN1Cc2c(Cl)cc(Cl)cc2[C@H](c2cccc(-c3cc(NCCOCCOCCOCCNC(=O)[C@H](O)[C@@H](O)C(=O)NCCOCCOCCOCCNc4cc(-c5cccc([C@@H]6CN(C)Cc7c(Cl)cc(Cl)cc76)c5)ncn4)ncn3)c2)C1 [Example 8-10, (2R,3R)-N,N′-Bis{2-[2-(2-{2-[(6-{3-[(4S)-6,8-dichloro-2-methyl-1,2,3,4-tetrahydroisoquinolin-4-yl]phenyl}pyrimidin-4-yl)amino]ethoxy}ethoxy)ethoxy]ethyl}-2,3-dihydroxybutanediamide hydrochloride]
7.5 nM	CN1Cc2c(Cl)cc(Cl)cc2[C@@H](c2cccc(-c3cc(NCCOCCOCCOCCNC(=O)COCC(=O)NCCOCCOCCOCCNc4cc(-c5cccc([C@@H]6CN(C)Cc7c(Cl)cc(Cl)cc76)c5)ncn4)ncn3)c2)C1 [Example 8-11, 1-[(6-{3-[(4R)-6,8-Dichloro-2-methyl-1,2,3,4-tetrahydroisoquinolin-4-yl]phenyl}pyrimidin-4-yl)amino]-N-{2-[2-(2-{2-[(6-{3-[(4S)-6,8-dichloro-2-methyl-1,2,3,4-tetrahydroisoquinolin-4-yl]phenyl}pyrimidin-4-yl)amino]ethoxy}ethoxy)ethoxy]ethyl}-13-oxo-3,6,9,15-tetraoxa-12-azaheptadecan-17-amide hydrochloride]
